Non-standard residues stand in square brackets, D forms with d. Residues, ends and D or L forms follow the SMILES beside them. *: point of attachment. Propanoyl(3-indol-3-yl) = O=C(CCc1c[nH]c2ccccc12)*; 2Nal = N[C@@H](Cc1ccc2ccccc2c1)C(=O)O; Arg(Me) = CNC(=N)NCCC[C@H](N)C(=O)O; Cha = N[C@@H](CC1CCCCC1)C(=O)O; X4 = NC(=S)[C@H](Cc1ccccc1)N*; Abu = CC[C@H](N)C(=O)O; azaGly = NNC(=O)O
How the values were obtained:
hOT7T175 [1] = target: T1, hOT7T175 (Homo sapiens, UniProt Q969F8, L364H); experiment: Intracellular Ca ion level-increasing activity using FLIPR (180 seconds; specific activity to Metastin (1-54)); type: cell-based; conditions: hOT7T175/CHO, relative to Metastin (1-54) = 1
T1 construct: expressed in transfected cells
T1 sequence (Q969F8 whole entry L364H): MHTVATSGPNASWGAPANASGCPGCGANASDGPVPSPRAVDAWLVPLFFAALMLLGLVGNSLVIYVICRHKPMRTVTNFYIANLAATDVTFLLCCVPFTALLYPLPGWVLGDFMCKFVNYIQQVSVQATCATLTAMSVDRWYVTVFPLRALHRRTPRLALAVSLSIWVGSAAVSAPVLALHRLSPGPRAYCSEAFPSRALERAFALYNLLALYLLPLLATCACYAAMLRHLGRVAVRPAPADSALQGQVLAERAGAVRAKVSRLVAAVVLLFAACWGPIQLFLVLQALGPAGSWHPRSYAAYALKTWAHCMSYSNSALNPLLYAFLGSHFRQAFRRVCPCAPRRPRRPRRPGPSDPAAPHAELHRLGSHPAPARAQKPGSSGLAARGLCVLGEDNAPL

hOT7T175 [2] = target: T1, hOT7T175; type: cell-based; conditions: hOT7T175/CHO, FLIPR, evaluation for 40 seconds after initiation of the reaction
Experimental: The intracellular Ca ion level-increasing activity was measured using FLIPR as in TEST EXAMPLE 2.

Row | Molecule | Specific Act. (intracellular Ca ion level-increasing activity, specific activity to Metastin (1-54)) (hOT7T175 [1]) | Specific Act. (EC50/MS10 EC50) (hOT7T175 [2])
1 | CC(C)C[C@H](NC(=O)CNC(=O)[C@H](Cc1ccccc1)NC(=O)[C@H](CO)NC(=O)[C@H](CC(N)=O)NC(=O)[C@H](Cc1c[nH]c2ccccc12)NC(=O)[C@H](CC(N)=O)NC(=O)[C@H](N)Cc1ccc(O)cc1)C(=O)N[C@@H](CCCNC(=N)N)C(=O)N[C@@H](Cc1ccccc1)C(N)=O [Compound No. 42] | 30 | 1.6
2 | CC(C)C[C@H](NC(=O)CNC(=O)[C@H](Cc1ccccc1)NC(=O)[C@H](CO)NC(=O)[C@H](CC(N)=O)NC(=O)[C@H](Cc1c[nH]c2ccccc12)NC(=O)[C@H](CC(N)=O)NC(=O)[C@@H](N)Cc1ccc(O)cc1)C(=O)N[C@@H](CCCCNC(=N)N)C(=O)N[C@@H](Cc1ccccc1)C(N)=O [Compound No. 97] | 10 | 2.9
3 | CC(C)C[C@H](NC(=O)CNC(=O)[C@H](Cc1ccccc1)NC(=O)[C@H](CO)NC(=O)[C@H](CC(N)=O)NC(=O)CCc1c[nH]c2ccccc12)C(=O)N[C@@H](CCCNC(=N)N)C(=O)N[C@@H](Cc1ccccc1)C(N)=O [Compound No. 114, 3-(3-Indolyl)propionyl-Asn-Ser-Phe-Gly-Leu-Arg-Phe-NH2] ({Propanoyl(3-indol-3-yl)}-NSFGLRF-NH2) | 3 | 4.1
4 | CC(C)C[C@H](NC(=O)CNC(=O)[C@H](Cc1ccccc1)NC(=O)[C@H](CO)NC(=O)[C@H](CC(N)=O)NC(=O)[C@H](Cc1c[nH]c2ccccc12)NC(=O)[C@H](CC(N)=O)NC(=O)[C@@H](N)Cc1ccc(O)cc1)C(=O)N[C@@H](CCCNC(=N)N)C(=O)N[C@@H](Cc1ccccc1)C(N)=S [Compound No. 128] (H-YNWNSFGLR-X4) | 10 | 0.5
5 | CC(C)C[C@H](NC(=O)CNC(=O)[C@H](Cc1ccccc1)NC(=O)[C@H](CO)NC(=O)[C@H](CC(N)=O)NC(=O)[C@H](Cc1c[nH]c2ccccc12)NC(=O)[C@H](CC(N)=O)NC(=O)[C@H](N)Cc1ccc(O)cc1)C(=O)N[C@@H](CCCNC(=N)N)C(=O)N[C@@H](Cc1ccccc1)C(N)=S [Compound No. 146] (H-[dY]NWNSFGLR-X4) | 10 | 1.5
6 | CC(C)C[C@H](NC(=O)CNC(=O)[C@H](Cc1ccc2ccccc2c1)NC(=O)[C@H](CO)NC(=O)[C@H](CC(N)=O)NC(=O)[C@H](Cc1c[nH]c2ccccc12)NC(=O)[C@H](CC(N)=O)NC(=O)[C@@H](N)Cc1ccc(O)cc1)C(=O)N[C@@H](CCCNC(=N)N)C(=O)N[C@@H](Cc1ccccc1)C(N)=O [Compound No. 152, Tyr-Asn-Trp-Asn-Ser-Nal(2)-Gly-Leu-Arg-Phe-NH2] (H-YNWNS[2Nal]GLRF-NH2) | 5 | 1.4
7 | CC(C)C[C@H](NC(=O)CNC(=O)[C@H](CC1CCCCC1)NC(=O)[C@H](CO)NC(=O)[C@H](CC(N)=O)NC(=O)[C@H](Cc1c[nH]c2ccccc12)NC(=O)[C@H](CC(N)=O)NC(=O)[C@@H](N)Cc1ccc(O)cc1)C(=O)N[C@@H](CCCNC(=N)N)C(=O)N[C@@H](Cc1ccccc1)C(N)=O [Compound No. 156, Tyr-Asn-Trp-Asn-Ser-Cha-Gly-Leu-Arg-Phe-NH2] (H-YNWNS[Cha]GLRF-NH2) | 2 | 0.9
8 | CNC(=N)NCCC[C@H](NC(=O)[C@H](CC(C)C)NC(=O)CNC(=O)[C@H](Cc1ccccc1)NC(=O)[C@H](CO)NC(=O)[C@H](CC(N)=O)NC(=O)[C@H](Cc1c[nH]c2ccccc12)NC(=O)[C@H](CC(N)=O)NC(=O)[C@H](N)Cc1ccc(O)cc1)C(=O)N[C@@H](Cc1c[nH]c2ccccc12)C(N)=O [Compound No. 174] (H-[dY]NWNSFGL[Arg(Me)]W-NH2) | 10 | 2.3
9 | CC[C@H](NC(=O)CNC(=O)[C@H](Cc1ccccc1)NC(=O)[C@H](CO)NC(=O)[C@H](CC(N)=O)NC(=O)[C@H](Cc1c[nH]c2ccccc12)NC(=O)[C@H](CC(N)=O)NC(=O)[C@@H](N)Cc1ccc(O)cc1)C(=O)N[C@@H](CCCNC(=N)N)C(=O)N[C@@H](Cc1ccccc1)C(N)=O [Compound No. 187, Tyr-Asn-Trp-Asn-Ser-Phe-Gly-Abu-Arg-Phe-NH2] (H-YNWNSFG[Abu]RF-NH2) | 1 | 1.9
10 | CC[C@H](C)[C@H](NC(=O)[C@H](CC(N)=O)NC(=O)[C@H](N)Cc1ccc(O)cc1)C(=O)N[C@@H](CC(N)=O)C(=O)N[C@@H](CO)C(=O)N[C@@H](Cc1ccccc1)C(=O)NCC(=O)N[C@@H](CC(C)C)C(=O)N[C@@H](CCCNC(=N)NC)C(=O)N[C@@H](Cc1ccccc1)C(N)=O [Compound No. 206] (H-[dY]NINSFGL[Arg(Me)]F-NH2) | 10 | 4.8
11 | CNC(=N)NCCC[C@H](NC(=O)[C@H](CC(C)C)NC(=O)CNC(=O)[C@H](Cc1ccccc1)NC(=O)[C@H](CO)NC(=O)[C@@H](NC(=O)[C@H](Cc1c[nH]c2ccccc12)NC(=O)[C@H](CC(N)=O)NC(=O)[C@H](N)Cc1ccc(O)cc1)[C@@H](C)O)C(=O)N[C@@H](Cc1ccccc1)C(N)=O [Compound No. 208] (H-[dY]NWTSFGL[Arg(Me)]F-NH2) | 1 | 7.3
12 | CNC(=N)NCCC[C@H](NC(=O)[C@H](CC(C)C)NC(=O)CNC(=O)[C@H](Cc1ccccc1)NC(=O)[C@H](CO)NC(=O)[C@H](C)NC(=O)[C@H](Cc1c[nH]c2ccccc12)NC(=O)[C@H](CC(N)=O)NC(=O)[C@H](N)Cc1ccc(O)cc1)C(=O)N[C@@H](Cc1ccccc1)C(N)=O [Compound No. 210] (H-[dY]NWASFGL[Arg(Me)]F-NH2) | 1 | 9.3
13 | CNC(=N)NCCC[C@H](NC(=O)[C@H](CC(C)C)NC(=O)CNC(=O)[C@H](Cc1ccccc1)NC(=O)[C@@H](NC(=O)[C@H](CC(N)=O)NC(=O)[C@H](Cc1c[nH]c2ccccc12)NC(=O)[C@H](CC(N)=O)NC(=O)[C@H](N)Cc1ccc(O)cc1)[C@@H](C)O)C(=O)N[C@@H](Cc1ccccc1)C(N)=O [Compound No. 211] (H-[dY]NWNTFGL[Arg(Me)]F-NH2) | 10 | 1.3
14 | CNC(=N)NCCC[C@H](NC(=O)[C@H](CC(C)C)NC(=O)CNC(=O)[C@H](Cc1ccccc1)NC(=O)[C@H](C)NC(=O)[C@H](CC(N)=O)NC(=O)[C@H](Cc1c[nH]c2ccccc12)NC(=O)[C@H](CC(N)=O)NC(=O)[C@H](N)Cc1ccc(O)cc1)C(=O)N[C@@H](Cc1ccccc1)C(N)=O [Compound No. 212] (H-[dY]NWNAFGL[Arg(Me)]F-NH2) | 10 | 1.1
15 | CNC(=N)NCCC[C@H](NC(=O)[C@H](CC(C)C)NC(=O)CNC(=O)[C@H](Cc1ccccc1)NC(=O)[C@H](CO)NC(=O)[C@H](CC(N)=O)NC(=O)[C@H](Cc1c[nH]c2ccccc12)NC(=O)[C@H](N)Cc1ccc(O)cc1)C(=O)N[C@@H](Cc1ccccc1)C(N)=O [Compound No. 217] (H-[dY]WNSFGL[Arg(Me)]F-NH2) | 20 | 3.1
16 | CNC(=N)NCCC[C@H](NC(=O)[C@H](CC(C)C)NC(=O)NNC(=O)[C@H](Cc1ccccc1)NC(=O)[C@H](CO)NC(=O)[C@H](CC(N)=O)NC(=O)[C@H](Cc1c[nH]c2ccccc12)NC(=O)[C@H](N)Cc1ccc(O)cc1)C(=O)N[C@@H](Cc1ccccc1)C(N)=O [Compound No. 222, D-Tyr-Trp-Asn-Ser-Phe-AzaGly-Leu-Arg(Me)-Phe-NH2] (H-[dY]WNSF[azaGly]L[Arg(Me)]F-NH2) | 10 | 2.7
17 | CNC(=N)NCCC[C@H](NC(=O)[C@H](CC(C)C)NC(=O)NNC(=O)[C@H](Cc1ccccc1)NC(=O)[C@H](CO)NC(=O)[C@H](CC(N)=O)NC(=O)[C@H](Cc1c[nH]c2ccccc12)NC(=O)[C@H](CC(N)=O)NC(=O)[C@H](N)Cc1ccc(O)cc1)C(=O)N[C@@H](Cc1ccccc1)C(N)=O [Compound No. 232, D-Tyr-Asn-Trp-Asn-Ser-Phe-AzaGly-Leu-Arg(Me)-Phe-NH2] | 3 | 3.9
18 | CNC(=N)NCCC[C@H](NC(=O)[C@H](CC(C)C)NC(=O)NNC(=O)[C@H](Cc1ccccc1)NC(=O)[C@H](CO)NC(=O)[C@H](CC(N)=O)NC(=O)[C@@H](NC(=O)[C@H](N)Cc1ccc(O)cc1)[C@@H](C)O)C(=O)N[C@@H](Cc1ccccc1)C(N)=O [Compound No. 241, D-Tyr-Thr-Asn-Ser-Phe-AzaGly-Leu-Arg(Me)-Phe-NH2] (H-[dY]TNSF[azaGly]L[Arg(Me)]F-NH2) | 1 | 5.3
19 | CNC(=N)NCCC[C@H](NC(=O)[C@H](CC(C)C)NC(=O)NNC(=O)[C@H](Cc1ccccc1)NC(=O)[C@H](CO)NC(=O)[C@H](CC(N)=O)NC(=O)[C@@H](Cc1c[nH]c2ccccc12)NC(=O)[C@H](N)Cc1ccc(O)cc1)C(=O)N[C@@H](Cc1ccccc1)C(N)=O [Compound No. 242, D-Tyr-D-Trp-Asn-Ser-Phe-AzaGly-Leu-Arg(Me)-Phe-NH2] (H-[dY][dW]NSF[azaGly]L[Arg(Me)]F-NH2) | 2 | 1.4
20 | H-YNWNSFGLRY-NH2 [Compound No. 109] | 20 | 2.6

From patent US8778871B2 (Takeda Pharmaceutical Company Limited, priority 2004, dated 2014)
